Test system: adjuvant-induced arthritis in rats
Test: Established Adjuvant-Induced Arthritis in Rats (paw volume)
Type: in vivo, rat (Charles River Lewis male rats)
Settings: oral gavage, 7 daily doses; for ED50: Rattus norvegicus, uninjected left hind paw, established adjuvant arthritis, read-out: Adjuvant Arthritis ED50 (ED50% decrease from control paw volume)
Method: A procedure for detecting and comparing the antiinflammatory activity of compounds in this series and standard drugs for which there is a good correlation with human efficacy is the adjuvant-induced arthritis test in rats.
The test procedure employed for determining antiinflammatory activity is described below.
Established Adjuvant-Induced Arthritis in Rats
Charles River Lewis male rats (130-150 grams) are injected subcutaneously in plantar area of the right hind paw with 0.1 ml of adjuvant (Difco heat-killed, lyophilized Mycobacterium butyricum suspended in mineral oil 5 mg/ml). 20 Non-arthritic controls are injected with mineral oil. The animals are held for 2 weeks to allow development of arthritis. Paw volumes (uninjected, left hind paw) are measured and the adjuvant injected rats are culled and distributed to treatment groups of 10 of equal disease severity. Non-arthritic controls are distributed to 2 groups of 10. The rats are given oral doses of compound or PVA-Acacia (Polyvinyl Alcohol 1%, Gum Acacia, U.S.P. 5%, Methylparaben 0.5%) (10 ml/kg) by gavage on that day and on the 6 following days. One day after the last dose the paw volumes (uninjected, left hind paw) are measured using a Ugo Basile Volume Differential Meter Model 7101. [formula]
% Decrease from Control Mean Paw Volume.
Dose-response regression lines of the % decrease are plotted on semi-log paper by visual fit and the ED50% decrease from control paw volume is determined by inspection.

With `FC(F)(F)C(c1cc(-c2ccccc2)c(-c2ccccc2)[nH]1)C(F)(F)F` [Example 1, 2,3-Diphenyl-5-[2,2,2-trifluoro-1-(trifluoromethyl)-ethyl]-1H-pyrrole] the ED50 was 11 mg/kg.
Compound `Fc1ccc(-c2cc(C(C(F)(F)F)C(F)(F)F)[nH]c2-c2ccc(F)cc2)cc1` [Example 2, 2,3-Bis(4-fluorophenyl)-5-[2,2,2-trifluoro-1-(trifluoromethyl)ethyl]-1H-pyrrole] has an ED50 of 4 mg/kg.
Work on `FC(F)(F)C(c1cc(-c2ccc(Cl)cc2)c(-c2ccc(Cl)cc2)[nH]1)C(F)(F)F` [Example 3] yielded an ED50 of 15 mg/kg.
`Fc1ccc(-c2cc(C(C(F)(F)F)C(F)(F)F)[nH]c2-c2ccc(Br)cc2)cc1` [Example 4] was tested, and the ED50 was 3.9 mg/kg.
For `Fc1ccc(-c2cc(C(C(F)(F)F)C(F)(F)F)[nH]c2-c2cccnc2)cc1` [Example 5], the “percent reduction in paw volume at the indicated dose” value (at 5 mg/kg) was 0%.
For `CSc1ccc(-c2[nH]c(C(C(F)(F)F)C(F)(F)F)cc2-c2ccc(F)cc2)cc1` [Example 6], the ED50 was 2.5 mg/kg.
Work on `Fc1ccc(C2=CC(=C(C(F)(F)F)C(F)(F)F)N=C2c2ccc(F)cc2)cc1` [Example 17, 4,5-Bis(4-fluorophenyl)-2-[2,2,2-trifluoro-1-(trifluoromethyl)ethylidene]-2H-pyrrole] yielded an ED50 of 33 mg/kg.
For `Fc1ccc(C2=CC(=C(C(F)(F)F)C(F)(F)F)N=C2c2ccc(Br)cc2)cc1` [Example 18, 5-(4-bromophenyl)-4-(4-fluorophenyl)-2-[2,2,2-trifluoro-1-(trifluoromethyl)ethylidene]-2H-pyrrole], the “percent reduction in paw volume at the indicated dose” value (at 25 mg/kg) was 16%.

Source: patent US4318917A, “Antiinflammatory 2,3-diaryl-5-[2,2,2-trifluoro-1-(trifluoromethyl]ethyl-1H-pyrroles” (E. I. Du Pont de Nemours and Company, priority 1981, dated 1982)
